The text below walks through data of patent US20140128357A1, “METHODS OF PRODUCING AND USING BRASSINOSTEROIDS TO PROMOTE GROWTH, REPAIR AND MAINTENANCE OF SKELETAL MUSCLE AND SKIN” (Rutgers University, priority 2010, published 2014).

In experiment [1] the test system is elastin mRNA in human neonatal dermal fibroblasts (HNDF). Put plainly: Elastin gene expression in human dermal fibroblasts, qPCR. To be noted: 16 h. Format: cell-based. Here is the method: Human neonatal dermal fibroblasts (HNDF) were maintained in DMEM+10% FBS and were kept in a humidified 37° C. incubator with 5% CO2. Cells were plated at a density of 1×10^4 cells per well in a 24-well plate and incubated for 24 h, or until 100% confluency was reached. Subsequently, the media was removed and cells were washed with 500 μL PBS twice to remove detached cells or cell debris. HNDF were then treated for 16 h as follows: DMEM only, retinoic Acid 5 μM, retinoic acid 10 μM, Homocastasterone 5 μM and Homocastasterone 10 μM.
RNA was extracted from HNDF using Trizol reagent (Invitrogen) following manufacturer instructions. RNA was quantified spectrophotometrically by absorbance measurements at 260 nm and 280 nm using the NanoDrop system (NanoDrop Technologies, Wilmington, Del.). Quality of RNA was assessed by separation in gel-electrophoresis. To remove any traces of DNA contamination, RNA was then treated with Dnase I (Invitrogen) following the manufacturer guidelines. Complementary DNAs (cDNAs) were synthesized using 3.0 μg of RNA for each sample using Applied Biosystems High Capacity cDNA Reverse Transcription Kit following the manufacturer's protocol.
Quantitative RT-PCR (qPCR) amplifications were carried out in triplicate on an ABI 7300 Real-Time Detection System in a total volume of 25 μl containing 12.5 μl Brilliant SYBR® Green PCR master mix (Applied Biosystems), 5 μl of the 1:25 diluted cDNA, 0.5 μl of 6 μM gene-specific primers (IDT, Coralville, Iowa) and […] PCR-grade water. Primers were synthesized by Integrated DNA Technologies, Inc. (Coralville, Iowa, USA) as follows: β-actin, forward primer 5′-ACGTTGCTATCCAGGCTGTGCTAT-3′ (SEQ ID NO: 1), reverse primer 5′-CTCGGTGAGGATCTTCATGAGGTAGT-3′ (SEQ ID NO: 2); elastin, forward primer 5′-AAGCAGCAGCAAAGTTCGGT-3′ (SEQ ID NO: 3), and reverse primer 5′-ACTAAGCCTGCAGCAGCTCCATA-3′ (SEQ ID NO: 4). qPCR amplifications were performed on the 7300 Real Time PCR System (A&B Applied Biosystems) using 1 cycle at 50° C. for 2 min, 1 cycle at 95° C. for 10 min, followed by 40 cycles of 15 s at 95° C. and 1 min at 60° C. The dissociation curve was completed with one cycle of 15 s at 95° C., 1 min at 60° C., and 15 s of 95° C. No RT (NRT) and no template control (NTC) were included in each experiment as quality control steps. Target mRNA expression was analyzed using the ΔΔCt method and normalized with respect to the expression of the β-actin housekeeping gene. Cells treated with DMEM only (negative control) served as the calibrator sample in this study, and a value of 1.0 was assigned to the target gene expression of the calibrator sample. All samples were run in triplicate. A p value of 0.001 was considered to be significant.
(In qPCR the cycle at which signal appears reflects the starting amount.)

For experiment [2], the system named is AKT (Ser473) phosphorylation in L6 myotubes. Put plainly: AKT (Ser473) phosphorylation, Western blot. Type of experiment: cell-based, rat. Here is the method: In some aspects, Western blot analyses were carried out. Fully differentiated L6 myotubes were cultured as described above, and whole cell extracts were prepared in ice-cold RIPA buffer supplemented with 10 mM sodium fluoride, 2 mM sodium orthovanadate, 1 mM PMSF, and protease inhibitor cocktail (Sigma) and centrifuged at 12,000 g for 20 min at 4° C. Equal amounts of protein (50 μg) from the supernatants were separated on 10% SDS polyacrylamide gels and blotted onto the nitrocellulose membrane. Western blot detection was carried out with monoclonal phospho-AKT (Ser473) antibodies according to the manufacturer's instructions (Cell Signaling Technology, Danvers, Mass.). After being washed, the blots were incubated with an anti-rabbit peroxidase-labeled secondary antibody and visualized using ECL Western Blotting Detection Reagent (GE Healthcare, Piscataway, N.J.). After being stripped, the same blots were probed with total AKT antibodies to serve as loading controls.

The test system of the next experiment is L6 rat myotubes. Put plainly: Protein synthesis, [3H]-phenylalanine incorporation in myotubes. Particulars: IGF-1 6.5 nM positive control, 4 h. Format: cell-based. Here is the method:
In some aspects, cell culture experiments were carried out. Rat L6 skeletal muscle cell line CRL-1458 was obtained from ATCC (Manassas, Va.). Myoblasts were routinely maintained in Dulbecco's modified Eagle's medium (DMEM) containing 10% FBS and 0.1% penicillin-streptomycin at 37° C. and 5% CO2. Cells were subcultured into 24-well plates for protein synthesis, degradation, and cell viability studies and into 6-well plates for Western blot analyses (Greiner Bio One, Monroe, N.C.). Once cells reached 90% confluence, differentiation was induced by lowering the serum concentration to 2%, and medium was changed every 2 days. After 7-9 days of culture the myoblasts had fused into multinucleated myotubes (Mandel et al., Nature 251:618-620, 1974). NIH 3T3 murine embryonic fibroblast cell line (ATCC #CCL-92) was maintained in DMEM and 10% FBS at 37° C. in 5% CO2, and passaged every 3-4 days.
In various aspects, protein synthesis is measured to determine the effect of brassinosteroid on a particular protein. All known methods for measuring protein synthesis are included in the methods of the disclosure. In brassinosteroid dose response studies, fully differentiated myotubes were washed with serum-free DMEM and treated in triplicate with vehicle (0.1% ethanol), increasing concentrations of HB, or 6.5 nM of insulin-like growth factor-1 (IGF-1) as a positive control. Compounds were added to serum-free medium containing 0.5 μCi/mL [^3H]-phenylalanine and incubated for 4 h. For the HB time course study, fully differentiated myotubes were treated with 3 μM HB for 1-24 h using the same culture conditions. The incubation was stopped by placing cells on ice, discarding the medium, and washing the cells extensively with ice-cold PBS to remove the non-incorporated radiolabel. Proteins were precipitated with 5% trichloroacetic acid and dissolved in 0.5N NaOH (Montgomery et al., Methods Cell. Sci. 24:123-129, 2002). Specific radioactivity of protein-bound phenylalanine was quantified using liquid scintillation counter LS 6500 (Beckman Coulter, Fullerton, Calif.) and normalized to mg of total protein determined by BCA protein assay (Pierce Biotechnology, Rockford, Ill.).
The bioactivity of HB and its analogs was evaluated by measuring increases in protein synthesis in the L6 rat skeletal muscle cells in vitro. Cells were incubated for 4 h with [^3H]-phenylalanine and treated in triplicate with vehicle (0.1% ethanol) or test compound (10 μM), and protein synthesis was measured as incorporation of [^3H]-phenylalanine into protein normalized by total protein (Table 3). Under these conditions, both HB and (22S,23S)-homocastasterone increased protein synthesis by 37.2±5.9% (p<0.001) and 41.0±2.7% (p<0.001), respectively. This protein synthesis increase compared favorably to the biological activity of IGF-1 at 6.5 nM (42.5±4.5%, p<0.001) that served as a positive control in this assay. Removal of the 2α-hydroxyl group and fluorination at C-3 in the A ring (compound IDs 3-4 in Table 3) led to about a 50% decrease in bioactivity (24.6±5.3%, p<0.01 and 22.5±2.7%, p<0.01, respectively) compared to the positive control. However, there was still an increase in protein synthesis. […] Modifications in the side chain (compound IDs 7-9 in Table 3) abolished the activity.

Experiment [3] has as its system TNF-α, TGF-β and ICAM-1 mRNA in wounds. The experiment in a line: Cytokine and chemokine mRNA in wound tissue, qPCR. Type of experiment: in vivo. To be noted: day 10 post-wounding, 10 μg/mouse topically. Here is the method: Cutaneous would healing is characterized by an initial inflammatory response. To evaluate the effect of brassinosteroids on inflammation in wound healing, mRNA levels of proinflammatory cytokines TNF-α and TGF-β and an adhesion chemokine ICAM-1 were measured in the wound tissue of control and treated mice on day 10 post-wounding and treatment with HB, positive control (CGS-21680), or negative control (vehicle).
Total RNA was extracted from fibroblasts using Trizol (Invitrogen, Carlsbad, Calif.). RNA was quantified spectrophotometrically by absorbance measurements at 260 and 280 nm using the NanoDrop reader (NanoDrop Technologies, Wilmington, Del.). Quality of RNA was assessed by gel electrophoresis. RNA was then treated with DnaseI (Invitrogen, Carlsbad, Calif.) to remove traces of DNA contamination and the cDNAs were synthesized with 2.5 μg of RNA using Stratascript reverse transcriptase (Stratagene, Santa Clara, Calif.) according to the manufacturers' protocols. Quantitative PCR was performed in duplicate essentially as described previously (Komarnytsky et al., Int. J. Obes. 35: 236-43, 2011) using the following gene-specific primers (IDT, Coralville, Iowa) selected using the Primer Express 2.0 software (Applied Biosystems, Foster City, Calif.): β-actin, forward primer 5′-GGGAAATCGTGCGTGACATT-3′ (SEQ ID NO: 5), and reverse primer 5′-GCG GCA GTG GCC ATC TC-3′ (SEQ ID NO: 6). Target gene expression of the housekeeping gene β-actin was assigned a value of 1. Samples were subjected to a melting curve analysis to confirm the amplification specificity. The relative change in the […] with respect to the endogenous control gene was determined using 2ΔΔCT method (Winer et al., Anal. Biochem. 270: 41-9, 1999).

For experiment [4], the system named is cutaneous wound in C57BL/6J mice. Put plainly: Mouse cutaneous injury model of wound healing. Type of experiment: in vivo. Particulars: 10 μg/mouse/day topically for 10 days. Here is the method: Under volatile anesthesia (5% isoflurane to effect), the shoulder and back region of each animal was shaved. A sharp punch (ID 6 mm) over their lumbar spine was applied to remove the skin, including panniculus carnosus and adherent tissues. Test substances were administered topically (TOP), immediately following cutaneous injury, once daily for 10 consecutive days. […] Wounds were traced onto clear plastic sheets and were measured by use of an ImageJ program (rsbweb.nih.gov/ij/), online from the National Institutes of Health (NIH). ImageJ is a public domain, Java-based image processing program developed at the NIH. Time to wound closure was estimated by comparing the area of the wound undergoing treatment to the areas of the wound undergoing control treatments. The percent closure of the wound (%) was calculated, and wound half-closure time (the time at which 50% of the cutaneous wound is closed, CT50) was analyzed by linear regression using Graph-Prism (Graph Software USA). At the end of experiment (10 days after the induction of the wound), animals were euthanized by CO2 gas inhalation. Blood was collected by heart puncture. Wound tissue and muscle were collected for immunohistochemical analyses and wound healing factor assays. HB increased the percent of wound closure in vivo in a mouse model of wound closure (FIG. 13). […] Twenty seven six-week-old male C57BL/6J mice, obtained from the Jackson Laboratory (Bar Harbor, Me.), were housed in individual chambers in a room maintained at a constant temperature with 12 h light-dark cycle. Mice had free access to food and water. Mice were allowed to adapt to new conditions for seven days and handling the mice was performed daily during this time to reduce the stress of physical manipulation. Mice were randomized into groups (n=9) according to body weight one day prior to dosing. Under volatile anesthesia (5% isoflurane to effect), the shoulder and back region of each animal was shaved. A sharp punch (ID 6 mm) over lumbar spine was applied to remove the skin including panniculus carnosus and adherent tissues. […] Pharmacol. 77: 1117-1124, 2009) as a positive control) was administered topically, immediately following cutaneous injury, and then daily for 10 days. To investigate the kinetics of wound healing, wound size was photographed and measured every two days with ImageJ software (rsbweb.nih.gov/ij/). […] The percent closure of the wound (%) was calculated, and time at which 50% of the cutaneous wound was closed (CT50) was analyzed by linear regression. […] Wound sizes were photographed and measured every 2 days for 10 days. Wound closure (%) relative to day 1 was determined every 2 days, and CT50 was calculated by linear regression. […]

Marks after values point to notes of the source that are not given here.

With `CC1=C(/C=C/C(C)=C/C=C/C(C)=C/C(=O)O)C(C)(C)CCC1` [Retinoic Acid, reference compound], the entries for the “Increase in elastin mRNA levels (-fold over control)” value in experiment [1] (5 μM) and in experiment [1] (10 μM) were 2.9** fold and 2.7** fold, respectively.

Regarding “IGF-1: Insulin-like growth factor 1, positive control for protein synthesis”, the “time to AKT phosphorylation” value in experiment [2] is at most 10 min. Also, the “Protein synthesis (% increase over control)” value in the experiment on L6 rat myotubes worked out at 42.5±4.5%.

As to `CCNC(=O)[C@H]1O[C@@H](n2cnc3c(N)nc(NCCc4ccc(CCC(=O)O)cc4)nc32)[C@H](O)[C@@H]1O` [CGS-21680, reference compound], in experiment [3], the “ICAM-1 mRNA in wound tissue” value was “no effect”, the “TGF-β mRNA in wound tissue” value was “no effect” and the “TNF-α mRNA in wound tissue” value is listed as “remarkable suppression”. Moreover, the “CT50, time at which 50% of the cutaneous wound is closed” value in experiment [4] was determined as 6.2 ± 0.4 days.
